In patent US20220056019A1, “FARNESOID X RECEPTOR AGONISTS AND USES THEREOF” (Metacrine, Inc., priority 2018, published 2022):

Molecular target: T1, hFXR (Homo sapiens, UniProt Q96RI1)
T1 construct: expressed in transfected cells; host or cells: CV-1 cells
T1 sequence (Q96RI1 1-486): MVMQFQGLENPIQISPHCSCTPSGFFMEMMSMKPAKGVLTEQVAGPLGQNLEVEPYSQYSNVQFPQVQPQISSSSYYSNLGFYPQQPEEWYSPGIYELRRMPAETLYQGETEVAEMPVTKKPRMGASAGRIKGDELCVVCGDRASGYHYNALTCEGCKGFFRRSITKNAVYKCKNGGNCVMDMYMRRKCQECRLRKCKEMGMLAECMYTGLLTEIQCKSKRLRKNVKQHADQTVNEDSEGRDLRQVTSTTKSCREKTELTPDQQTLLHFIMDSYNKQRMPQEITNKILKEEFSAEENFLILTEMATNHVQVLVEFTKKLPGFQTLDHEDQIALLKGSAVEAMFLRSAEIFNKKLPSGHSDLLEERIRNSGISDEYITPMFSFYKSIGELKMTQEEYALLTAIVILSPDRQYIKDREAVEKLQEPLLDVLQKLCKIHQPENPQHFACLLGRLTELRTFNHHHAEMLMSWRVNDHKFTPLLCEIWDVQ
T1 sequence (P19793 1-462 partner): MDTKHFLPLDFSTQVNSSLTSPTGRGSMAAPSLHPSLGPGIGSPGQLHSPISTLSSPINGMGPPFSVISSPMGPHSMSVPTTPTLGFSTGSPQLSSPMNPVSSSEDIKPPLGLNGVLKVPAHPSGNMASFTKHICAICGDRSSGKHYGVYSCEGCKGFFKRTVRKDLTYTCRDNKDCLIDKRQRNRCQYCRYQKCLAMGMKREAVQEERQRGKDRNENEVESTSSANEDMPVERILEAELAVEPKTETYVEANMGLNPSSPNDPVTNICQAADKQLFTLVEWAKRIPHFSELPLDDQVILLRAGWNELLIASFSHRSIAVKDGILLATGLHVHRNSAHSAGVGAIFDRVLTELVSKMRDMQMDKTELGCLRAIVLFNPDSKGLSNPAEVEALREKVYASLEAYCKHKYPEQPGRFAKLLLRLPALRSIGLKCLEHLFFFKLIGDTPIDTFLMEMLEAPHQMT
Experiment: In Vitro FXR Assay (TK): TK-ECRE-luc reporter in transfected CV-1 cells
Type: cell-based
Settings: 18 hrs incubation, luminescence
Method in brief: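 CV-1 cells transiently cotransfected with hFXR, hRXR, TK-ECRE-luc reporter and pCMX-YFP plasmids in charcoal-stripped serum medium. Serially diluted compounds added for 18 h at 37° C., then cells lysed and luciferase luminescence measured.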

Row | Compound | EC50
1 | COc1ccc(C23CCC(CN(c4cccc(-c5cnn(C(C)C)c5)c4)C(=O)[C@H]4CC[C@H](OC(=O)N5CC(O)C5)CC4)(CC2)CC3)cc1C [Compound 25.02, 4-((3-(1-Isopropyl-1H-pyrazol-4-yl)phenyl)((4-(4-methoxy-3-methylphenyl)bicyclo[2.2.2]octan-1-yl)methyl)carbamoyl)cyclohexyl trans-3-hydroxyazetidine-1-carboxylate] | ≤ 0.05 µM
2 | COc1ccc(C23CCC(CN(c4ccc(F)c(-c5cnn(C(C)C)c5)c4)C(=O)[C@H]4CC[C@H](OC(=O)N5CC(CO)C5)CC4)(CC2)CC3)cc1C [Compound 25.09, 4-((4-Fluoro-3-(1-isopropyl-1H-pyrazol-4-yl)phenyl)((4-(4-methoxy-3-methylphenyl)bicyclo[2.2.2]octan-1-yl)methyl)carbamoyl)cyclohexyl trans-3-(hydroxymethyl)azetidine-1-carboxylate] | ≤ 0.05 µM
3 | COc1ccc([C@H]2CC[C@H](CN(c3cc(-c4cnn(C(C)C)c4)ccn3)C(=O)[C@H]3CC[C@H](OC(=O)N4CC(N(C)C)C4)CC3)CC2)cc1C [Compound 2.13, trans-4-((4-(1-Isopropyl-1H-pyrazol-4-yl)pyridin-2-yl)(((trans)-4-(4-methoxy-3-methylphenyl)cyclohexyl)methyl)carbamoyl) cyclohexyl 3-(dimethylamino)azetidine-1-carboxylate] | ≤ 0.05 µM
4 | COC(=O)N[C@H]1CC[C@H](C(=O)N(C[C@H]2CC[C@H](c3ccc(OC)c(C)c3)CC2)c2cccc(-c3cnn(C(C)C)c3)c2)CC1 [Compound 6, Methyl (trans-4-((3-(1-isopropyl-1H-pyrazol-4-yl)phenyl)((trans-4-(4-methoxy-3-methylphenyl)cyclohexyl)methyl)carbamoyl)cyclohexyl)carbamate] | ≤ 0.05 µM
5 | COc1ccc(C23CCC(CN(c4cc(-c5cnn(C(C)C)c5)ccn4)C(=O)[C@H]4CC[C@H](OC(=O)NCCC(C)(C)O)CC4)(CC2)CC3)cc1C [Compound 4.08, 4-((4-(1-Isopropyl-1H-pyrazol-4-yl)pyridin-2-yl)((4-(4-methoxy-3-methylphenyl)bicyclo [2.2.2]octan-1-yl)methyl)carbamoyl)cyclohexyl (3-hydroxy-3-methylbutyl)trans-carbamate] | ≤ 0.05 µM
6 | COc1ncc([C@H]2CC[C@H](CN(c3cc(-c4cnn(C(C)C)c4)ccn3)C(=O)[C@H]3CC[C@H](OC(=O)N4CCN(C)CC4)CC3)CC2)cc1Cl [Compound 1.09, trans-4-((((trans)-4-(5-Chloro-6-methoxypyridin-3-yl)cyclohexyl)methyl)(4-(1-isopropyl-1H-pyrazol-4-yl)pyridin-2-yl)carbamoyl)cyclohexyl 4-methylpiperazine-1-carboxylate] | ≤ 0.05 µM
7 | CCc1nc(-c2ccnc(N(C[C@H]3CC[C@H](c4ccc(OC)c(C)c4)CC3)C(=O)[C@H]3CC[C@H](OC(=O)NCC(C)(C)O)CC3)c2)co1 [Compound 2.49, trans-4-((4-(2-Ethyloxazol-4-yl)pyridin-2-yl)((trans-4-(4-methoxy-3-methylphenyl)cyclohexyl)methyl)carbamoyl)cyclohexyl (2-hydroxy-2-methylpropyl)carbamate] | ≤ 0.05 µM
8 | COc1ccc(C23CCC(CN(c4cc(-c5cnn(C(C)C)c5)ccn4)C(=O)[C@H]4CC[C@H](OC(=O)NCC(C)(C)O)CC4)(CC2)CC3)cc1C [Compound 4.06, 4-((4-(1-Isopropyl-1H-pyrazol-4-yl)pyridin-2-yl)((4-(4-methoxy-3-methylphenyl)bicyclo [2.2.2]octan-1-yl)methyl)carbamoyl)cyclohexyl (2-hydroxy-2-methylpropyl)trans-carbamate] | ≤ 0.05 µM
9 | CC(C)n1cc(-c2ccnc(N(CC34CCC(C5CCC(C)(C)CC5)(CC3)CC4)C(=O)[C@H]3CC[C@H](OC(=O)N4CC(O)C4)CC3)c2)cn1 [Compound 26.19, 4-(((4-(4,4-Dimethylcyclohexyl)bicyclo[2.2.2]octan-1-yl)methyl)(4-(1-isopropyl-1H-pyrazol-4-yl)pyridin-2-yl)carbamoyl)cyclohexyl trans-3-hydroxyazetidine-1-carboxylate] | 0.05 to 1 µM
